Data from patent US20250051277A1, “DELIVERY OF THERAPEUTIC ALKALOID COMPOUNDS” (Sensorium Therapeutics, Inc., priority 2021, published 2025).
Read-outs that look alike come from different tables or passages of the source. Marks after values point to notes of the source that are not given here.

Tests used:
[1] = assay type: physicochemical; settings: DI water, 25° C., 0.5 mM
[2] = assay type: physicochemical; settings: SGF with pepsin, pH 1.5, 37° C.; for Condition 1 Conversion (%): 0.5 mM; for Condition 1 Conversion (%), first value of pair x/y: first of two values; for Condition 1 Conversion (%), second value of pair x/y: second of two values

| SMILES | Condition 2 Conversion (%) ([1]; time 1 min) | Condition 2 Conversion (%) ([1]; time 5 min) | Condition 2 Conversion (%) ([1]; time 30 min) | Condition 2 Conversion (%) ([1]; time 1 h) | Condition 2 Conversion (%) ([1]; time 4 h) | Condition 2 Conversion (%) ([1]; time 24 h) | Condition 1 Conversion (%) ([2]; time 1 min) | Condition 1 Conversion (%) ([2]; time 5 min) | Condition 1 Conversion (%) ([2]; time 30 min) | Condition 1 Conversion (%) ([2]; time 1 h) | Condition 1 Conversion (%) ([2]; time 4 h) | Condition 1 Conversion (%) ([2]; time 24 h) | also measured |
| --- | --- | --- | --- | --- | --- | --- | --- | --- | --- | --- | --- | --- | --- |
| COc1ccc([C@@]23CCC(=NNC(=O)CC[C@H](NC(=O)c4ccc(NCc5cnc6nc(N)nc(O)c6n5)cc4)C(=O)O)C[C@@H]2N(C)CC3)cc1OC [Compound 172, (2S)-5-[2-[(3aS,7aS)-3a-(3,4-dimethoxyphenyl)-1-methyl-2,3,4,5,7,7a-hexahydroindol-6-ylidene]hydrazino]-2-[[4-[(2-amino-4-hydroxy-pteridin-6-yl)methylamino]benzoyl]amino]-5-oxo-pentanoic acid] | 50* % | 70* % | 100 | 100 | 100 | 100 | 100 | 100 | 100 | 100 | 100 | 100 | – |
| COc1ccc([C@@]23CCC(=NNC(=O)c4ccc(Cl)cc4)C[C@@H]2N(C)CC3)cc1OC [Compound 240, N-[[(3aS,7aS)-3a-(3,4-dimethoxyphenyl)-1-methyl-2,3,4,5,7,7a-hexahydroindol-6-ylidene]amino]-4-chloro-benzamide] | 35.7% | 30% | 40.5 | 43.3 | 54.2 | 100 | 84 | 100 | 100 | 100 | 100 | 100 | – |
| COc1ccc([C@@]23CCC(=NOCCO)C[C@@H]2N(C)CC3)cc1OC [Compound 203, 2-[[(3aS,7aS)-3a-(3,4-dimethoxyphenyl)-1-methyl-2,3,4,5,7,7a-hexahydroindol-6-ylidene]amino]oxyethanol] | 0% | 0% | 0 | 0 | 0 | 0 | 0 | 0 | 0 | 0 | 18.58 | 26.48 | – |
| COc1ccc([C@@]23CCC(=NNCc4ccccn4)C[C@@H]2N(C)CC3)cc1OC [Compound 369, (3aS,7aS)-3a-(3,4-dimethoxyphenyl)-1-methyl-6-(2-(pyridin-2-ylmethyl)hydrazineylidene)octahydro-1H-indole] | 0% | 0% | 0 | 0 | 45 | 50 | 30 | 100 | 100 | 100 | 100 | 100 | – |
| COc1ccc([C@@]23CCC(=NOCCOc4ccccc4)C[C@@H]2N(C)CC3)cc1OC [Compound 234, (3aS,7aS)-3a-(3,4-dimethoxyphenyl)-1-methyl-N-(2-phenoxyethoxy)-2,3,4,5,7,7a-hexahydroindol-6-imine] | 0% | 0% | 0 | 0 | 0 | 0 | 0 | 0 | 0 | 0 | 2.16 | 2.63 | – |
| COc1ccc([C@@]23CCC(=NNC(=O)C(=O)O)C[C@@H]2N(C)CC3)cc1OC [Compound 241, 2-[2-[(3aS,7aS)-3a-(3,4-dimethoxyphenyl)-1-methyl-2,3,4,5,7,7a-hexahydroindol-6-ylidene]hydrazino]-2-oxo-acetic acid] | 0% | 28% | 30 | 52 | 86 | 100 | 100 | 100 | 100 | 100 | 100 | 100 | – |
| COc1ccc([C@@]23CCC(=NNC(=O)CC(CC(=O)O)CC(C)C)C[C@@H]2N(C)CC3)cc1OC (stereo partly drawn) [Compound 242, 3-[2-[2-[(3aS,7aS)-3a-(3,4-dimethoxyphenyl)-1-methyl-2,3,4,5,7,7a-hexahydroindol-6-ylidene]hydrazino]-2-oxo-ethyl]-5-methyl-hexanoic acid] | 33.46% | 36.51% | 38.53 | 40.8 | 55.46 | 55.7 | 75.01 | 95.02 | 96.13 | 97.72 | 98.02 | 98.34 | – |
| COc1ccc([C@@]23CC/C(=N/OC(C)(C)OC)C[C@@H]2N(C)CC3)cc1OC [Compound 219, (Z,3aS,7aS)-3a-(3,4-dimethoxyphenyl)-N-(1-methoxy-1-methyl-ethoxy)-1-methyl-2,3,4,5,7,7a-hexahydroindol-6-imine] | 0% | 0% | 0 | 0 | 0 | 0 | – | – | – | – | – | – | Condition 1 Conversion (%), first value of pair x/y ([2]; time 1 min): 100%; Condition 1 Conversion (%), second value of pair x/y ([2]; time 1 min): 0%; Condition 1 Conversion (%), first value of pair x/y ([2]; time 5 min): 100%; Condition 1 Conversion (%), second value of pair x/y ([2]; time 5 min): 0%; Condition 1 Conversion (%), first value of pair x/y ([2]; time 30 min): 0%; Condition 1 Conversion (%), second value of pair x/y ([2]; time 30 min): 100%; Condition 1 Conversion (%), first value of pair x/y ([2]; time 1 h): 0%; Condition 1 Conversion (%), second value of pair x/y ([2]; time 1 h): 100%; Condition 1 Conversion (%), first value of pair x/y ([2]; time 4 h): 0%; Condition 1 Conversion (%), second value of pair x/y ([2]; time 4 h): 100%; Condition 1 Conversion (%), first value of pair x/y ([2]; time 24 h): 0%; Condition 1 Conversion (%), second value of pair x/y ([2]; time 24 h): 100% |
| COc1ccc(NC(=O)NN=C2CC[C@@]3(c4ccc(OC)c(OC)c4)CCN(C)[C@H]3C2)cc1 [Compound 254, 1-[[(3aS,7aS)-3a-(3,4-dimethoxyphenyl)-1-methyl-2,3,4,5,7,7a-hexahydroindol-6-ylidene]amino]-3-(4-methoxyphenyl)urea] | 0% | 0% | 0 | 1.1 | 16.2 | 17.6 | 0 | 2.4 | 84.7 | 91.9 | 91.9 | 92 | – |
